The target of data set [1] is Serine/threonine-protein kinase B-raf (Homo sapiens, UniProt P15056). Description: Inhibition of b-Raf.
The subject of another data set is A-375. In words: Antiproliferative activity against human A375 cells. The data set is classed as functional, cell-based.
Another data set concerns LoVo. In words: Antiproliferative activity against human LoVo cells. The format is functional, cell-based.
For another data set, the system named is HT-29. Description: Antiproliferative activity against human HT-29 cells. The format is functional, cell-based.
Another data set deals with Caco-2. Description: Antiproliferative activity against human Caco-2 cells. The data set is classed as functional, cell-based.
Another data set relates to BXPC-3. In words: Antiproliferative activity against human BxPC3 cells. The data set is classed as functional, cell-based.
Data set [2] in a line: Antiproliferative activity against human WM266.4 cells. The following applies: WM 266-4. The data set is classed as functional, cell-based.
For data set [3], the target named is Cyclin-dependent kinase 1 (Homo sapiens, UniProt P06493). In words: Inhibition of CDK1.
The target in data set [4] is Cyclin-dependent kinase 2 (Homo sapiens, UniProt P24941). Description: Inhibition of CDK2.
Data set [5] concerns the target RAC-alpha serine/threonine-protein kinase (Homo sapiens, UniProt P31749). In words: Inhibition of PKBalpha.
Data set [6] deals with Protein kinase C alpha type (Homo sapiens, UniProt P17252). Description: Inhibition of PKCalpha.
For data set [7], the target named is Protein kinase C beta type (Homo sapiens, UniProt P05771). Description: Inhibition of PKCbeta.
Data set [8] concerns the target Inhibitor of nuclear factor kappa-B kinase subunit beta (Homo sapiens, UniProt O14920). In words: Inhibition of IKK-beta.
Data set [9] addresses Mitogen-activated protein kinase 8 (Homo sapiens, UniProt P45983). In words: Inhibition of JNK1.
Data set [10] concerns the target Mitogen-activated protein kinase 1 (Homo sapiens, UniProt P28482). Description: Inhibition of ERK2.
In data set [11] the target is Mitogen-activated protein kinase 14 (Homo sapiens, UniProt Q16539). In words: Inhibition of P38alpha.
The target of data set [12] is MAP kinase-activated protein kinase 2 (Homo sapiens, UniProt P49137). In words: Inhibition of MK2.
The nature of data set [13]: Inhibition of PKA.
The target in data set [14] is Rho-associated protein kinase 1 (Homo sapiens, UniProt Q13464). In words: Inhibition of ROCK1.
Data set [15] is described as follows: Inhibition of CK1gamma.
For data set [16], the target named is Proto-oncogene tyrosine-protein kinase Src (Homo sapiens, UniProt P12931). Description: Inhibition of Src.
Data set [17] addresses Tyrosine-protein kinase Fyn (Homo sapiens, UniProt P06241). Description: Inhibition of Fyn.
Data set [18] deals with Tyrosine-protein kinase ABL1 (Homo sapiens, UniProt P00519). In words: Inhibition of Abl1.
Data set [19] concerns the target Mitogen-activated protein kinase kinase kinase kinase 2 (Homo sapiens, UniProt Q12851). In words: Inhibition of GCK.
For data set [20], the target named is Serine/threonine-protein kinase Chk1 (Homo sapiens, UniProt O14757). Description: Inhibition of CHK1.
Data set [21] is described as follows: Inhibition of RSK.
The target of data set [22] is Serine/threonine-protein kinase PLK1 (Homo sapiens, UniProt P53350). Description: Inhibition of PLK1.
The target in data set [23] is Insulin-like growth factor 1 receptor (Homo sapiens, UniProt P08069). Description: Inhibition of IGFR1.
The target of data set [24] is Tyrosine-protein kinase Lck (Homo sapiens, UniProt P06239). Description: Inhibition of LCK.
A short description of data set [25]: Inhibition of p70S6K.
The target in data set [26] is Phosphatidylinositol 4,5-bisphosphate 3-kinase catalytic subunit alpha isoform (Homo sapiens, UniProt P42336). In words: Inhibition of PI3Kalpha.
Data set [27] deals with Serine/threonine-protein kinase mTOR (Homo sapiens, UniProt P42345). Description: Inhibition of mTOR.
In data set [28] the target is 3-phosphoinositide-dependent protein kinase 1 (Homo sapiens, UniProt O15530). In words: Inhibition of PDK1.
Data set [29] concerns the target Mitogen-activated protein kinase kinase kinase 8 (Homo sapiens, UniProt P41279). In words: Inhibition of TPL2.
The nature of data set [30]: Permeability at pH 7.4 by PAMPA. The format is ADME. As to conditions: read-out: permeability. (In PAMPA a lipid-coated filter parts donor from acceptor wells.)
Data set [31] is described as follows: Half life in rat microsomes. The data set is classed as ADME, Microsome.
Data set [32] is described as follows: Metabolic stability in nude mouse microsomes assessed as half life. The format is ADME, Microsome.

Broadly, the IC50 is the midpoint of a concentration-inhibition curve. The term half-life denotes the time in which the quantity being followed falls by half.

Serine/threonine-protein kinase B-raf, sequence (P15056 whole entry): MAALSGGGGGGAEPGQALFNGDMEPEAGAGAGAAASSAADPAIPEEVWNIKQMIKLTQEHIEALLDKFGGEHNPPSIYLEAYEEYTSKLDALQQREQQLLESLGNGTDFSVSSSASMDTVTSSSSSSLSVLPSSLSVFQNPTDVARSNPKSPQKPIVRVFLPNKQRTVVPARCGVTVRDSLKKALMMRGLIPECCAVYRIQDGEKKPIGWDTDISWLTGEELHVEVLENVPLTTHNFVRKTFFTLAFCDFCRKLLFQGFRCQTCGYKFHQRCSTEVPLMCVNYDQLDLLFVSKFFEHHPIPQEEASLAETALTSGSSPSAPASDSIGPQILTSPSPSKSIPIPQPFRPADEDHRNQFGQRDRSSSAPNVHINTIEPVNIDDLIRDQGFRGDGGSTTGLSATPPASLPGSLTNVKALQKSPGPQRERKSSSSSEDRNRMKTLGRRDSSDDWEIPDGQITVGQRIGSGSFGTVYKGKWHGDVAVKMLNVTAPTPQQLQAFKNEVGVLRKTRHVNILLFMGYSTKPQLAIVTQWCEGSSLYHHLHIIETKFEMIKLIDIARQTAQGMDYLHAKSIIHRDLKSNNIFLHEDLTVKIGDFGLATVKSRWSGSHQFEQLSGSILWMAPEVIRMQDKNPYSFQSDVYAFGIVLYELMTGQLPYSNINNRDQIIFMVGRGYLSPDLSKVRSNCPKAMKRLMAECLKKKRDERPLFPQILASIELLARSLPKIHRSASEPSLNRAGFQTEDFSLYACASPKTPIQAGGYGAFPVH
RAC-alpha serine/threonine-protein kinase, sequence (P31749 whole entry): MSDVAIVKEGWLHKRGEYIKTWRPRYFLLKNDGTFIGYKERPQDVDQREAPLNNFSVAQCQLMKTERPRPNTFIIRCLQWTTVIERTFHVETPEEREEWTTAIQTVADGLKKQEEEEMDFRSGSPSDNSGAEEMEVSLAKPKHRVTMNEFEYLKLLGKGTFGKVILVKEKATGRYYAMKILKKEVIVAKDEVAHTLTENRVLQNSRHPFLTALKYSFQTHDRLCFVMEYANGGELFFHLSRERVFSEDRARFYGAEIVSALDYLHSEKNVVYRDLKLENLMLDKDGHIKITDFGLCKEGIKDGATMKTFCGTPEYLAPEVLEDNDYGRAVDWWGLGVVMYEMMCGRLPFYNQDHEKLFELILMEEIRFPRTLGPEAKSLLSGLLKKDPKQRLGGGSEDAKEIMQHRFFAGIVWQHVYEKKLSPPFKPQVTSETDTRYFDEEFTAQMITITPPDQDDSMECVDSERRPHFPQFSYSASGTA
Mitogen-activated protein kinase kinase kinase kinase 2, sequence (Q12851 whole entry): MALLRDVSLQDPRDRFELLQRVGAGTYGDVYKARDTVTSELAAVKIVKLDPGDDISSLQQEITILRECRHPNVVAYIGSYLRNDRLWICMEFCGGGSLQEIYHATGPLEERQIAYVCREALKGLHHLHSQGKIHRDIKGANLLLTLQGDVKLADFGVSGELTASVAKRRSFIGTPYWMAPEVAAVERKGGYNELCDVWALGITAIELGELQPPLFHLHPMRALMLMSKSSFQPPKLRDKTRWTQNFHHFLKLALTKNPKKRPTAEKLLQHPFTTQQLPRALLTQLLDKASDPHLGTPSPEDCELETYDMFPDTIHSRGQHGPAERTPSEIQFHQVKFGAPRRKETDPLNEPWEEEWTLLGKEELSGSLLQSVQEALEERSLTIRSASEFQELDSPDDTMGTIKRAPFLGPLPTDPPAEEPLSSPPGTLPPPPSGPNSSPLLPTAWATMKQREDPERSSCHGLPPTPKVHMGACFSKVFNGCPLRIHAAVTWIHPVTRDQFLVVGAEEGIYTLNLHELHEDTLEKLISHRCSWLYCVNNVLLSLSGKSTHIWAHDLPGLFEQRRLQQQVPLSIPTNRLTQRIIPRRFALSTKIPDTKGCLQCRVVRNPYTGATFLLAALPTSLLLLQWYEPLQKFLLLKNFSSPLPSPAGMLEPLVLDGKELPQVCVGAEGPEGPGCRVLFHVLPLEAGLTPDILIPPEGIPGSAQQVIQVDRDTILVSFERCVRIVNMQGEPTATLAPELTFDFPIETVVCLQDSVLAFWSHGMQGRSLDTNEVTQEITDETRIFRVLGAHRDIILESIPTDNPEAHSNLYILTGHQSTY
Mitogen-activated protein kinase 1, sequence (P28482 whole entry): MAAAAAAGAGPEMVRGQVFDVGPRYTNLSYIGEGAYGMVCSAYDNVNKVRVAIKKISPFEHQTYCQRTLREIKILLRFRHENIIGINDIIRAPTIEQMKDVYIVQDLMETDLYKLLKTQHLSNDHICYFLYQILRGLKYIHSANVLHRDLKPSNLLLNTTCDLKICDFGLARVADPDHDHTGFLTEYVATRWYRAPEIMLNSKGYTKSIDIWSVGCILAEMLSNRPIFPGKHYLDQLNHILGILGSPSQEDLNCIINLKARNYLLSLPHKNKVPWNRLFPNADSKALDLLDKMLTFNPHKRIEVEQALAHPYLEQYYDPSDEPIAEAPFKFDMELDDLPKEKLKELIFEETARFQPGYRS
Inhibitor of nuclear factor kappa-B kinase subunit beta, sequence (O14920 whole entry): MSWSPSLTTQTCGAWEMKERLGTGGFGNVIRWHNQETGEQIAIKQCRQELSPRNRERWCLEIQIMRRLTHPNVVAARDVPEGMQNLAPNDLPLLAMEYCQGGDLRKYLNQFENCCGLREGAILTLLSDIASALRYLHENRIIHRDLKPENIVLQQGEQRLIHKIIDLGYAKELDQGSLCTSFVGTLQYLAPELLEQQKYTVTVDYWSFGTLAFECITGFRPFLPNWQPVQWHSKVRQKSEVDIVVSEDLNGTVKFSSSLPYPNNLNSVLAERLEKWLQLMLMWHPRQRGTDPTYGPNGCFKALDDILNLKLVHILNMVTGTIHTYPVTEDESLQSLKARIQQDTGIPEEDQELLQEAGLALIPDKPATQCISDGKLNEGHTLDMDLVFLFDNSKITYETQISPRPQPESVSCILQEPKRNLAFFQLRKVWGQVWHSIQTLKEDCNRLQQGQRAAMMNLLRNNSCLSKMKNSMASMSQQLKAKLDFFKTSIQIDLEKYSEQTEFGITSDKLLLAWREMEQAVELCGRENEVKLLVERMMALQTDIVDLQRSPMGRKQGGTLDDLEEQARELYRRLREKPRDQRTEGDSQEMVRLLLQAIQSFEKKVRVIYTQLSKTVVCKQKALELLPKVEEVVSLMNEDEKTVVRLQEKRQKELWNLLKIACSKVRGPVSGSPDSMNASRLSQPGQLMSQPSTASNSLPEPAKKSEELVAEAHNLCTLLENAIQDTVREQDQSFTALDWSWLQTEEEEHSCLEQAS
Serine/threonine-protein kinase PLK1, sequence (P53350 whole entry): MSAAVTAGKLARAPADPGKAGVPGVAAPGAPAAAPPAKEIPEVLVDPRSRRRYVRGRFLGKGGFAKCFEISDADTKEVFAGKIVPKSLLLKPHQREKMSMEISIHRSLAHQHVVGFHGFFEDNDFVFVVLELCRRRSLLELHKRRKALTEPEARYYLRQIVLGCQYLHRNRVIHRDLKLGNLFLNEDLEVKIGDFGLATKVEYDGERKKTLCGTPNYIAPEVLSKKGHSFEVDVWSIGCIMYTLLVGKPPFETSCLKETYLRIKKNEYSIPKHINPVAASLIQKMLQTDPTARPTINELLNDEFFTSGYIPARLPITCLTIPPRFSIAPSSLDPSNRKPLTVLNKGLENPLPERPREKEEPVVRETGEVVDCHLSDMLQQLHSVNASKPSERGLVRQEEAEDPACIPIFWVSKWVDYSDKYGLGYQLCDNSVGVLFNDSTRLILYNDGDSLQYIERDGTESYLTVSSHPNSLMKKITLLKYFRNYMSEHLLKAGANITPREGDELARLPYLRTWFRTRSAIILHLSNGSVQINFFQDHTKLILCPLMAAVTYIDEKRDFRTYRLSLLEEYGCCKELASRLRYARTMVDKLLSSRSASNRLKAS
MAP kinase-activated protein kinase 2, sequence (P49137 whole entry): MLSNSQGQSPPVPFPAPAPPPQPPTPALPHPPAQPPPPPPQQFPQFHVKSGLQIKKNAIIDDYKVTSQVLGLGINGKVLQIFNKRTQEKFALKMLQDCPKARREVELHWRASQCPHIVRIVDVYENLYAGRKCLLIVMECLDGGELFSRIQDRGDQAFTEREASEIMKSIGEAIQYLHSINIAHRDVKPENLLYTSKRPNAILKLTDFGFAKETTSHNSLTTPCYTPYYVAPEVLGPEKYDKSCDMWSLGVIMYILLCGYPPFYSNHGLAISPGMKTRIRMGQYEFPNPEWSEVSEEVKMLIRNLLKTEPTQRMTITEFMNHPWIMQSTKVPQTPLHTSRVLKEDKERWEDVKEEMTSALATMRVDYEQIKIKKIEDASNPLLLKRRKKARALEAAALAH

`Cn1cncc1-c1cc2nccc(-c3cccc(NC(=O)c4cccc(C(F)(F)F)c4)c3)n2n1` had an IC50 in data set [1] of 0.1 µM.
On to `O=C(Nc1cccc(-c2ccnc3cc(-c4ccncc4)nn23)c1)c1cccc(C(F)(F)F)c1`, for which the IC50 in the data set with A-375 worked out at 0.28 µM; in the data set on LoVo, 0.4 µM; with HT-29 it was 0.35 µM; in the data set with Caco-2, 2.6 µM; in the data set on BXPC-3 it was 3.1 µM; in [2], 3.5 µM. Moreover, the IC50 in data set [3], in data set [4], in [5], in data set [6], in data set [7] and in [8] was more than 50 µM each time. Moreover, the IC50 in data set [9], in data set [10], in data set [11], in data set [12], in data set [13] and in [14] was more than 50 µM throughout. The IC50 in data set [15], in data set [16], in data set [17], in [18], in data set [19] and in [20] was more than 50 µM throughout. In addition, the IC50 in [21], in [22], in [23], in [24], in data set [25] and in [26] was more than 50 µM throughout. The IC50 in data set [27], in data set [28] and in [29] was more than 50 µM each time. In addition, the Papp in [30] is 251 ×10⁻⁶ cm/s. Moreover, the half-life in data set [31] is more than 30 min; in data set [32] it was 24 min.
For the compound `O=C(Nc1cccc(-c2ccnc3cc(-c4cnc[nH]4)nn23)c1)c1cccc(C(F)(F)F)c1`, in data set [1], the IC50 was 1.6 µM.
As to `O=C(Nc1cccc(-c2ccnc3cc(-c4ccncc4)nn23)c1)c1ccc(Cl)c(Cl)c1`, half-maximal inhibition in data set [1] (IC50) required 0.66 µM.
Consider `O=C(Nc1cccc(-c2ccnc3cc(-c4ccncc4)nn23)c1)c1ccc(Cl)c(C(F)(F)F)c1`, for which, in data set [1], 0.06 µM corresponded to half-maximal inhibition (IC50).
The same measure, in the same setting: next, `O=C(Nc1cccc(-c2ccnc3cc(-c4cccnc4)nn23)c1)c1cccc(C(F)(F)F)c1`: more than 10 µM.
The same measure, in the same setting: next, `O=C(Nc1cccc(-c2ccnc3cc(-c4ccnc(NCCCN5CCOCC5)c4)nn23)c1)c1cccc(C(F)(F)F)c1`: 0.13 µM; `O=C(Nc1cccc(-c2ccnc3cc(-c4ccnc(NCCCN5CCCC5=O)c4)nn23)c1)c1cccc(C(F)(F)F)c1`: 0.11 µM.
Same read-out and setting: next, `O=C(Nc1cccc(-c2ccnc3cc(-c4ccnc(NCCCc5ncc[nH]5)c4)nn23)c1)c1cccc(C(F)(F)F)c1`: 0.066 µM; `O=C(Nc1cccc(-c2ccnc3cc(-c4ccncc4)nn23)c1)Nc1ccc(Cl)c(C(F)(F)F)c1`: 0.04 µM.

(Values after ChEMBL document CHEMBL1156255, “Hit to lead optimization of pyrazolo[1,5-a]pyrimidines as B-Raf kinase inhibitors” (Bioorg Med Chem Lett, 2009).)
